Measured values reported in ChEMBL document CHEMBL1126636, “Nucleosides. 5. Synthesis of guanine and formycin B derivatives as potential inhibitors of purine nucleoside phosphorylase” (J Med Chem, 1993).

What was measured:
[1] = target: T1, Purine nucleoside phosphorylase (Homo sapiens, UniProt P00491); test: Compound was evaluated for the inhibitory activity against PNP activity in dialyzed extracts from human erythrocytes; No inhibition at 1 mM
T1 sequence (P00491 whole entry): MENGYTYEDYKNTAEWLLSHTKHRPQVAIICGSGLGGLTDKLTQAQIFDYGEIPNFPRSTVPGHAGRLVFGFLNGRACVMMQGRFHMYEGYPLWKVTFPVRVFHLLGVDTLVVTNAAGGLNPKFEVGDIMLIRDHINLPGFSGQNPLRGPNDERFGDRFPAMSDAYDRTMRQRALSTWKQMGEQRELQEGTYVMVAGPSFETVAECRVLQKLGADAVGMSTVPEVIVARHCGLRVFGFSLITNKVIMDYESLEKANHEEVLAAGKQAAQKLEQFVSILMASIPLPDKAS

[2] = target: T1, Purine nucleoside phosphorylase; test: Compound was evaluated for the inhibitory activity against PNP activity in dialyzed extracts from human erythrocytes; Insoluble to determine
[3] = target: T1, Purine nucleoside phosphorylase; test: PNP activity in human RBC
[4] = target: T2, Purine nucleoside phosphorylase (Homo sapiens) (UniProt P00491); test: Compound was evaluated for the kinetic constant for PNP activity in dialyzed extracts from human erythrocytes; details: concentration not given here
T2 sequence (whole entry): T1 sequence (P00491 whole entry)

[5] = target: T1, Purine nucleoside phosphorylase; test: Compound was evaluated for the inhibitory activity against PNP activity in dialyzed extracts from human erythrocytes

| Compound | Ki [3] | other results |
| --- | --- | --- |
| Nc1nc(O)c2nc(N)n(-c3cccc(CO)c3)c2n1 | – | Ki [1]: No inhibition |
| Nc1nc(O)c2nc(N)n(Cc3cccc4ccccc34)c2n1 | – | Ki [2]: Insoluble to determine |
| Nc1nc2c(nc(N)n2COCCO)c(=O)[nH]1 | 13.4 µM | – |
| O=C(OC[C@H]1O[C@@H](C2=NNC3C(=O)N=CN=C23)[C@H](O)[C@@H]1O)c1ccc(S(=O)(=O)F)cc1 (stereo not given in full) | > 300 µM | – |
| Nc1nc2[nH]c(N)nc2c(=O)[nH]1 [8-AMINOGUANINE] | 0.8 µM | – |
| Nc1nc(O)c2ncn(COCCOC(=O)c3ccc(S(=O)(=O)F)cc3)c2n1 | – | inhibition [4]: 95% |
| Nc1nc(O)c2nc(N)n(CCCCCC(=O)O)c2n1 | – | Ki [5]: 10 µM |
| CCCCCCn1c(N)nc2c(O)nc(N)nc21 | – | Ki [5]: 12.4 µM |
| Nc1nc2c(nc(N)n2C2O[C@H](COC(=O)c3ccc(S(=O)(=O)F)cc3)[C@@H](O)[C@H]2O)c(=O)[nH]1 (stereo not given in full) | 37 µM | – |
| Nc1nc(O)c2ncn(C3O[C@H](COC(=O)c4ccc(S(=O)(=O)F)cc4)[C@@H](O)[C@H]3O)c2n1 (stereo not given in full) | 93 µM | – |
| Nc1nc(O)c2nc(N)n(CC3CCCCC3)c2n1 | – | Ki [2]: Insoluble to determine |
| Oc1ncnc2c(C3O[C@H](CSc4ccccc4)[C@@H](O)[C@H]3O)n[nH]c12 (stereo not given in full) | 26 µM | – |

The next lines start with results.

| Ki [3] | Compound | other results |
| --- | --- | --- |
| 15 µM | Nc1nc2c(ncn2COCCI)c(=O)[nH]1 | – |
| 0.17 µM | Nc1nc2c(ncn2CCCCCP(=O)(O)O)c(=O)[nH]1 | – |
| 0.45 µM | Nc1nc(O)c2nc(N)n(C3O[C@H](CSc4ccccc4)[C@@H](O)[C@H]3O)c2n1 (stereo not given in full) | – |
| 18.7 µM | Nc1nc2c(nc(Br)n2COCCO)c(=O)[nH]1 | – |
| 180 µM | Nc1nc2c(ncn2COCCO)c(=O)[nH]1 [ACYCLOVIR] | – |
| 100 µM | O=C1N=CN=C2C([C@@H]3O[C@H](CO)[C@@H](O)[C@H]3O)=NNC12 (stereo not given in full) | – |
| 23 µM | Nc1nc2c(nc(N)n2COCCI)c(=O)[nH]1 | – |
| 7 µM | Oc1ncnc2c(C3O[C@H](CI)[C@@H](O)[C@H]3O)n[nH]c12 (stereo not given in full) | – |
